Experimental findings from publication PMC12498288 (Frontiers in Immunology, 2025) are described below.

The test system of series [1] is SARS-CoV-1. The series is described as follows: microbe, parasite or virus in culture. It is filed as cell-based, SARS-CoV-1 (SARS-CoV-HKU-39849). Particulars: Severe acute respiratory syndrome coronavirus, Vero.
A short description of series [2]: Pharmacokinetics after a single oral dose in Syrian hamsters (serum, HPLC-MS/MS). Format: in vivo. Particulars: for C(24 h): mean concentration at 24 h; for Cmax / AUC / Tmax / half-life: po. An excerpt: Zapnometinib was synthesized by Chemcon GmbH (Freiburg, Germany). Before administration to Syrian hamsters, it was freshly dissolved in dimethyl sulfoxide (DMSO) (Carl Roth GmbH, Karlsruhe, Germany) and then further dissolved in 15% Kolliphor EL (Sigma-Aldrich, Germany) and 80% phosphate-buffered saline (PBS) (Gibco, Life Technology Europe B.V., Bleiswijk, the Netherlands). Kolliphor EL is used to emulsify and solubilize oils and other water in-soluble substances, it has been used as a pharmaceutical solvent for numerous drugs and has proven in previous in vivo studies with zapnometinib. Zapnometinib was administered orally at the indicated doses in a volume of 500 μL/150 g body weight using a gavage needle.
Drug administration and blood sampling in Syrian hamsters were performed by Viroclinics Xplore (Schaijk, the Netherlands) and are described in the sections “Drug administration” and “Sampling after inoculation”. Specifically, at different time points (0, 0.5, 1, 2, 4, 8, 12, and 24 h) after the administration of a single dose of zapnometinib (15, 30, or 60 mg/kg per oral (p.o.)), ~200 µL blood was collected retro-orbitally from three animals per time point per dose and alternating animals between time points (except at 24 h, n = 6 per group) under isoflurane anesthesia using a heparinized capillary tube containing a clot activator (Microvette 500 Z-Gel, Sarstedt). Serum was collected by centrifuging the tubes at 4000 x g for 10 min, aliquoted, and stored at < -70°C until pharmacokinetic analysis. Daily clinical observations included monitoring of signs such as ruffled fur, hunched back posture, accelerated breathing and lethargy, and the body weight was monitored before and 24 h post administration.
Bioanalysis and pharmacokinetic evaluation were performed at Prolytic GmbH (Frankfurt, Germany). […] liquid chromatography tandem mass spectrometry (HPLC-MS/MS) was employed to determine the concentration of zapnometinib in hamster serum in accordance with the company’s SOPs. During the analytical phase, two batches were evaluated. The acceptance criteria for the calibration standards and quality control (QC) samples were fulfilled for both batches as per the company’s SOPs. […] In total, 81 study test samples were analyzed. The validity of the method during the analysis of the test samples was ensured by assaying QC samples with known concentrations of zapnometinib; zapnometinib 13C6 was used as the internal standard. The lower limit of quantification (LLOQ) of the method was determined to be 10 ng/mL for zapnometinib in undiluted serum. All serum concentrations falling below LLOQ were assigned a value of 0. ANALYST software was used to calculate the concentrations of the test and QC samples based on the corresponding calibration curves. The obtained mean serum concentrations were used for noncompartmental pharmacokinetic evaluation with Phoenix® WinNonLin software (Pharsight Corporation, Mountain View, CA, USA; version 8.1).

In series [3] the test system is HCoV OC43. In words: Virus yield reduction assay, HCoV-OC43 on MRC-5 cells (RT-qPCR). Particulars: Betacoronavirus 1, OC43, MRC5, MOI 0.1, 24 h. It is filed as cell-based. How it is done: The virus yield reduction assay of HCoV-229E and HCoV-OC43 was performed on MRC-5 cells seeded at 1.5x10^5 cells per well in 24-well plates 24 h prior infection with HCoV-229E (MOI 0.001) or HCoV-OC43 (MOI 0.1) for 1 h. The inoculum was completely removed, and the cells were treated with different concentrations of zapnometinib (50 µM to 0.006 µM) and a solvent control in Iscove’s Modified Dulbecco’s Medium (IMDM) containing 2% FBS, 1% Penicillin/Streptomycin at 34°C, 5% CO2 for 24 h (HCoV-OC43) or 48 h (HCoV-229E). Supernatants were harvested and the viral titer was determined by a real-time one-step multiplex RT-qPCR using specific primers targeting the N and NS2 genes for HCoV-229E and HCoV-OC43 respectively ( Supplementary Table 1 ) EC50 values were calculated based on the measured viral titers normalized to the solvent control (1% DMSO) and using the “log(inhibitor) vs. response - Variable slope (four parameters)” analysis in GraphPad Prism v9.
A general note: In qPCR the cycle at which signal appears reflects the starting amount.

Where [4] appears, read: Syrian, hamster, serum, 15 mg/kg p.o. single dose.
[5] abbreviates: Syrian, hamster, serum, 30 mg/kg p.o. single dose.
[6] abbreviates: hamster, serum, 60 mg/kg p.o. single dose.
The mark [7] stands for this setting: single doses of 15, 30 or 60 mg/kg p.o.

Structures are written as SMILES. Where “and” joins values, the source holds several entries; their conditions need not be identical. Equal values may be shown once. Read-outs that look alike come from different tables or passages of the source.

Usually EC50 stands for the concentration needed to bring the measured effect to its halfway point. A low value points to an effect from little substance. What is called Cmax is the highest concentration seen after dosing. The term AUC denotes the area under the concentration-time curve, a measure of exposure. Low values mean less exposure, high ones more exposure. Broadly, the Tmax is the time at which the peak concentration occurs. For the molecule `O=C(O)c1ccc(F)c(F)c1Nc1ccc(I)cc1Cl` [zapnometinib], the concentration for a half-maximal effect (EC50) is 33.6 µM and 13.8 µg/mL in series [1]; 16.1 µM and 6.6 µg/mL in series [3]. Moreover, the “C(24 h)” value in series [2] (15 mg/kg p.o. single dose) is 0.26 µM; in series [2] (30 mg/kg p.o. single dose), 0.55 µM. The maximum concentration (Cmax) was 85100 ng/mL and 34.8 µM in series [2] (Syrian, hamster, 15 mg/kg p.o. single dose, serum); 53.9 µM in series [2] (Syrian, hamster, 30 mg/kg p.o. single dose, serum); 132 µg/mL in series [2] (hamster, 30 mg/kg p.o. single dose, serum); 242000 ng/mL and 99.2 µM in series [2] (hamster, 60 mg/kg p.o. single dose, serum). For the same molecule, the concentration at 24 h in series [2] (Syrian, hamster, serum, oral, 60 mg/kg p.o. single dose, read-out: concentration of zapnometinib after 24 h) is 5320 ng/mL and 13 µM. In addition, the AUC in series [2] (setting [4]) was 672 µg·h/mL; in series [2] (setting [5]) it was 1230 µg·h/mL; in series [2] (setting [6]), 2970 µg·h/mL. Besides, the Tmax was determined as 2 h in series [2] (setting [4]), 2 h in series [2] (setting [5]) and 4 h in series [2] (setting [6]). Further, the half-life in series [2] (Syrian, hamster, serum, 15 mg/kg p.o. single dose, read-out: T1/2 (converted)) is 2.74 h; in series [2] (Syrian, hamster, serum, 30 mg/kg p.o. single dose, read-out: T1/2 (converted)) it was 2.75 h; in series [2] (Syrian, hamster, serum, all dose groups (15, 30, 60 mg/kg p.o.), read-out: apparent terminal half-life), 2 to 3 h; in series [2] (hamster, serum, 60 mg/kg p.o. single dose, read-out: T1/2 (converted)), 3.07 h. For the same molecule, the adverse events entry in series [2] (setting [7]) is reported as “no adverse events were reported”. In addition, the tolerability entry in series [2] (setting [7]) is “well tolerated”.
